Assay results published in US20200239530A1, “COMPOUNDS AND METHODS OF MODULATING PROTEIN DEGRADATION” (Vividion Therapeutics, Inc., priority 2017, published 2020).
Where two headings read alike, the source gives them in different places.

What was measured:
Type in all cases: binding
UniProt O60260 = target: T1, UniProt O60260 (Homo sapiens, UniProt O60260); assay: Cysteine liganding, probe competition
T1 construct: 200 μL of lysate containing 5 mg/ml proteome was treated with 2 μL of 100× compound stock; endogenous in cells
T1 sequence (O60260 1-465): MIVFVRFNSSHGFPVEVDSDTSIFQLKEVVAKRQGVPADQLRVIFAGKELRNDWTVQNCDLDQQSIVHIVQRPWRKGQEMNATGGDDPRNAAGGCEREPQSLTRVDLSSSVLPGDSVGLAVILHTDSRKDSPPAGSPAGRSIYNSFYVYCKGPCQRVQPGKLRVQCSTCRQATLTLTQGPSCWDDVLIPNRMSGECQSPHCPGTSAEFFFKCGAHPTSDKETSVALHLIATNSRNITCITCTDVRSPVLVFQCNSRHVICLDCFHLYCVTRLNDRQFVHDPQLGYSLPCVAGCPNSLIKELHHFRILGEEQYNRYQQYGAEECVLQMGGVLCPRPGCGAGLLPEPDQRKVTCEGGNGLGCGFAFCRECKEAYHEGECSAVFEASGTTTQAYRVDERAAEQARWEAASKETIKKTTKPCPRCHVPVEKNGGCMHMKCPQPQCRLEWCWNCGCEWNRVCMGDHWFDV
Text: (§1) The following 96-well sample prep protocol was used for sample preparation.

Q96P09 = target: T2, Q96P09 (Homo sapiens, UniProt Q96P09); assay: Competitive cysteine profiling, probe competition (Table 2B)
T2 construct: 200 μL of lysate containing 5 mg/ml proteome was treated with 2 μL of 100× compound stock; endogenous in cells
T2 sequence (Q96P09 1-236): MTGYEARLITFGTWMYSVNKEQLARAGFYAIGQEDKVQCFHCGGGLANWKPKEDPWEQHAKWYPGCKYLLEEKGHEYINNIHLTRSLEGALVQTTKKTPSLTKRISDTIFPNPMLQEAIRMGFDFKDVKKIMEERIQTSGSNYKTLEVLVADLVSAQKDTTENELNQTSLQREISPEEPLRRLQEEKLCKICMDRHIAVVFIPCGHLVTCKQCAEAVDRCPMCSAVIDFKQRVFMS
Text: as §1

Q9UKV5 = target: T3, Q9UKV5 (Homo sapiens, UniProt Q9UKV5); assay: as above
T3 construct: Cells were resuspended in cold PBS on ice and sonicated with a probe sonicator to achieve lysis; endogenous in cells
T3 sequence (Q9UKV5 whole entry): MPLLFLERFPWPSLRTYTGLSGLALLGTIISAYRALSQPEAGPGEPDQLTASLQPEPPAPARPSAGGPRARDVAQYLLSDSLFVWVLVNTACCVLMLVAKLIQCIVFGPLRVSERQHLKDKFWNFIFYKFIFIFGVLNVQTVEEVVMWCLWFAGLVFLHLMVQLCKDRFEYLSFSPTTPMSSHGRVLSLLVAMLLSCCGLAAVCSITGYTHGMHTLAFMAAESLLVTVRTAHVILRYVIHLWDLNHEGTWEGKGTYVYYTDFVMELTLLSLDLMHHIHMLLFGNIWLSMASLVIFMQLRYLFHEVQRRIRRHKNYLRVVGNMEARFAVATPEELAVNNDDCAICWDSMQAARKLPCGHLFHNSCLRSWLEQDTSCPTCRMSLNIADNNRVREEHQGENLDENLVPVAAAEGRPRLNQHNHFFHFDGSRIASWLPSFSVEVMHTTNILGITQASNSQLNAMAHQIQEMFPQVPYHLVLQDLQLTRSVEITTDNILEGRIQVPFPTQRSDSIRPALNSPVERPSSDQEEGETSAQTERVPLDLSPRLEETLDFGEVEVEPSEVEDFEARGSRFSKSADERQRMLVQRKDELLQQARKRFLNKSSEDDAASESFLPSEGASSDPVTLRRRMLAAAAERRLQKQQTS
Text: as §1

Q5XKL5 = target: T4, Q5XKL5 (Homo sapiens, UniProt Q5XKL5); assay: as above
T4 construct: 200 μL of lysate containing 5 mg/ml proteome was treated with 2 μL of 100× compound stock; endogenous in cells
T4 sequence (Q5XKL5 whole entry): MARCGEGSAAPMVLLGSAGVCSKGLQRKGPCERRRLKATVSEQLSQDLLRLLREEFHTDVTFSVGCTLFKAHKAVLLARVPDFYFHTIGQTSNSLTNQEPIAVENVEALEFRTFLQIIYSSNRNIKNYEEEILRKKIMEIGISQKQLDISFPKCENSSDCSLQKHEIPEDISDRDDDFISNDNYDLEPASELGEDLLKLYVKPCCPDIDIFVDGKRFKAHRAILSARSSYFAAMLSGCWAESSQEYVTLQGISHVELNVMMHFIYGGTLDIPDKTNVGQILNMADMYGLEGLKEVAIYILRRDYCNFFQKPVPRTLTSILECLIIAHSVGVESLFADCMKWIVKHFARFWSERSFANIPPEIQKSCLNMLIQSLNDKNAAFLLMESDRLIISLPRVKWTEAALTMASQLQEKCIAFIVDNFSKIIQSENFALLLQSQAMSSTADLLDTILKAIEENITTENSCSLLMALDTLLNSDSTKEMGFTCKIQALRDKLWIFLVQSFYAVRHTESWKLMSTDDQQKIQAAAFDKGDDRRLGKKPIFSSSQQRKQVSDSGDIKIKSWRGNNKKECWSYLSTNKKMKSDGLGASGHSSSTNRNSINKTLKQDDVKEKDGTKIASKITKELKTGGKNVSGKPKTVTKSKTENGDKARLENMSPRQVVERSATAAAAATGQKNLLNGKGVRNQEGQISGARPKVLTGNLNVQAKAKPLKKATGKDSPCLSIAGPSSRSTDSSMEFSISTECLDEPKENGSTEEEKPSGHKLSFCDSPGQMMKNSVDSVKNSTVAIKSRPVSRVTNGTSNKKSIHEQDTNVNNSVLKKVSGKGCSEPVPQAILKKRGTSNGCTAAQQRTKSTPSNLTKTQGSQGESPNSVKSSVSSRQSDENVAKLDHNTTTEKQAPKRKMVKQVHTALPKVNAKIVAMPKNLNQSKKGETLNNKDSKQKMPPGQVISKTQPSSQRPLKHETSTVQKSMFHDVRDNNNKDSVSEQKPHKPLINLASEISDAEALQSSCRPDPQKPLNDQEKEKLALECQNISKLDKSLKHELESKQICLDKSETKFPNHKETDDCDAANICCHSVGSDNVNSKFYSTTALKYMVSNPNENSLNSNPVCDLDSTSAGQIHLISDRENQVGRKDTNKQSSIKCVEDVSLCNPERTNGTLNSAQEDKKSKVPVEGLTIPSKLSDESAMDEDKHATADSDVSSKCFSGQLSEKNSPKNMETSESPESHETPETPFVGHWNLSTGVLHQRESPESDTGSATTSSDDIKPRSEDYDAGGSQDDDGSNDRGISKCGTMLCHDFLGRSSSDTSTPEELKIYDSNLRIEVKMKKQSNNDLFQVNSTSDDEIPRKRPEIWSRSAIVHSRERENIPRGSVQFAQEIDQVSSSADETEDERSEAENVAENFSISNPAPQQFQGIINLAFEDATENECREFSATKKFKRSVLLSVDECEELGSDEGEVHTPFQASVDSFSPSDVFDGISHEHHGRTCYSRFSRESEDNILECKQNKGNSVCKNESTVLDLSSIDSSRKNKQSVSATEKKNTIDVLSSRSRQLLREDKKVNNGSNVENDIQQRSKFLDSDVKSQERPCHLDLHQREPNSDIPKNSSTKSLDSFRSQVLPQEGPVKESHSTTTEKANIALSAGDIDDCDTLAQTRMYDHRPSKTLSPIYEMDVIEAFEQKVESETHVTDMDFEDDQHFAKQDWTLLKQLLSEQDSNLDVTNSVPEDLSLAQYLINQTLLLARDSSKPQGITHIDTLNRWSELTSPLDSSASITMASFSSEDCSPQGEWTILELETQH
Text: as §1

Q96DX5 = target: T5, Q96DX5 (Homo sapiens, UniProt Q96DX5); assay: as above
T5 construct: 200 μL of lysate containing 5 mg/ml proteome was treated with 2 μL of 100× compound stock; endogenous in cells
T5 sequence (Q96DX5 1-294): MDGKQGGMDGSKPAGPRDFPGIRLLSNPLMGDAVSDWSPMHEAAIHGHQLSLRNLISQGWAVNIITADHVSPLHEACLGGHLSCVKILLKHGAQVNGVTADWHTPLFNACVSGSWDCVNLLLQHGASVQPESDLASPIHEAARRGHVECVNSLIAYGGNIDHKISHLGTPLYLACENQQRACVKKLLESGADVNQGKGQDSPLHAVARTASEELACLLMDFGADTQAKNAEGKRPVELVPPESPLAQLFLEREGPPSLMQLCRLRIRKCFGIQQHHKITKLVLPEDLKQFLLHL
Text: as §1

Q96C12 = target: T6, Q96C12 (Homo sapiens, UniProt Q96C12); assay: as above
T6 construct: Cells were resuspended in cold PBS on ice and sonicated with a probe sonicator to achieve lysis; endogenous in cells
T6 sequence (Q96C12 1-935): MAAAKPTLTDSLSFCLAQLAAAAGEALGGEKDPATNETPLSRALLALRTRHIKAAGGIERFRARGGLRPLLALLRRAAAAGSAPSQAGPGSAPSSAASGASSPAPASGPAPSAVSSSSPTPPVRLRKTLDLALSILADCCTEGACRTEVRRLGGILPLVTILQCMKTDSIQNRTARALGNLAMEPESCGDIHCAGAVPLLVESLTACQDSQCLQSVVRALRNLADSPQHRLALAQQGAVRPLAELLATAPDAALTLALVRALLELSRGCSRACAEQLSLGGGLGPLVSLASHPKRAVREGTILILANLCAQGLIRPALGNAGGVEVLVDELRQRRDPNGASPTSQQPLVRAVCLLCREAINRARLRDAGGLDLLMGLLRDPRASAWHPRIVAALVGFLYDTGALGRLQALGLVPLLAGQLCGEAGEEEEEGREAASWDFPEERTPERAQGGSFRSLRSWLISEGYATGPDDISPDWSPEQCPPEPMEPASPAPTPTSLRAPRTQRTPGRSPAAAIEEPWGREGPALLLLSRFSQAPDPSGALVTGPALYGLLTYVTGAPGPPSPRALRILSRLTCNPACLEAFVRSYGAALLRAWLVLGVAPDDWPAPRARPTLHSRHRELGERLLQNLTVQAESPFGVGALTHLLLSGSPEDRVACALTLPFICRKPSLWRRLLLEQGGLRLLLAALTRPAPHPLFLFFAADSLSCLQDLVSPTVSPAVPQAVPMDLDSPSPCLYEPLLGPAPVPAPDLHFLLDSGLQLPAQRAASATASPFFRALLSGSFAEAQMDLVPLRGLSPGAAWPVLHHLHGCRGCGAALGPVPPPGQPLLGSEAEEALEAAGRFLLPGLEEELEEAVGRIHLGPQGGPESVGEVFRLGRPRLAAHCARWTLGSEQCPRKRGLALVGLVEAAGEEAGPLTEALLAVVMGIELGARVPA
Text: as §1

Q92624 = target: T7, Q92624 (Homo sapiens, UniProt Q92624); assay: as above
T7 construct: Cells were resuspended in cold PBS on ice and sonicated with a probe sonicator to achieve lysis; endogenous in cells
T7 sequence (Q92624 1-585): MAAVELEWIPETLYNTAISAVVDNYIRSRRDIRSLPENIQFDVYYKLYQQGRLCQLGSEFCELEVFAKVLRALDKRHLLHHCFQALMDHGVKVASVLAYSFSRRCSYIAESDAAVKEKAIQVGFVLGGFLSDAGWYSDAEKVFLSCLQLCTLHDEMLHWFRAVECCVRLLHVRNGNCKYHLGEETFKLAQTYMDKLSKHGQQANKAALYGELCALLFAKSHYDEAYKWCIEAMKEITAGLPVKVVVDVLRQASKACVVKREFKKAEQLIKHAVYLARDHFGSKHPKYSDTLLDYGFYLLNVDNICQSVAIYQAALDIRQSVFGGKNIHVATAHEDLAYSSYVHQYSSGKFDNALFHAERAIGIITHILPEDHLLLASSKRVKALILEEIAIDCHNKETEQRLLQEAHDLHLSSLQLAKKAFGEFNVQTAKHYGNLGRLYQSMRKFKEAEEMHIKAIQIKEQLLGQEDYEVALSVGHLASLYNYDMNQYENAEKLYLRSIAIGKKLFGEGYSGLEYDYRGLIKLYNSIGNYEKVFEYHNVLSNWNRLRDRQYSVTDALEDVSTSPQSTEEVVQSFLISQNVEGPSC
Text: as §1

[1] = read-out: KB02_500 uM_percent_inhibition
[2] = read-out: KB02_100 uM_percent_inhibition
[3] = 500 uM, read-out: KB02_500 uM_percent_inhibition
[4] = read-out: KB05_500 uM_percent_inhibition
[5] = read-out: KB05_100 uM_percent_inhibition
[6] = 500 uM, read-out: KB05_500 uM_percent_inhibition

## COc1ccc2c(c1)CCCN2C(=O)CCl [KB02]
UniProt O60260; [1]
  inhibition at 500 µM: 92%
Q96P09; [1]
  inhibition at 500 µM: 38%
Q9UKV5; [2]
  inhibition at 100 µM: 4%
Q9UKV5; [3]
  inhibition at 500 µM: 19%
Q5XKL5; 100 uM, read-out: KB02_100 uM_percent_inhibition
  inhibition at 100 µM: 27%
Q96DX5; [2]
  inhibition at 100 µM: 30%
Q96C12; [2]
  inhibition at 100 µM: 62%
Q92624; [3]
  inhibition at 500 µM: 100%

## C=CC(=O)N(c1ccccc1)c1ccc(Br)cc1 [KB05]
UniProt O60260; [4]
  inhibition at 500 µM: 93%
Q96P09; [4]
  inhibition at 500 µM: 45%
Q9UKV5; [5]
  inhibition at 100 µM: 5%
Q9UKV5; [6]
  inhibition at 500 µM: 18%
Q5XKL5; 500 uM
  KB05_500 uM_percent_inhibition: 55%
Q5XKL5; [6]
  inhibition at 500 µM: 37%
Q96DX5; [5]
  inhibition at 100 µM: 12%
Q96C12; [5]
  inhibition at 100 µM: 23%
Q92624; 100 uM, read-out: KB05_100 uM_percent_inhibition
  inhibition at 100 µM: 34%

## O=C(CCl)Nc1cc(C(F)(F)F)cc(C(F)(F)F)c1 [KBO3]
UniProt O60260; 500 uM
  KB03_500 uM_percent_inhibition: 91%
Q96P09; 500 uM
  KB03_500 uM_percent_inhibition: 21%
Q9UKV5; 500 uM
  KB03_500 uM_percent_inhibition: 48%
Q5XKL5; 500 uM
  KB03_500 uM_percent_inhibition: 18%
Q96DX5; 100 uM
  KB03_100 uM_percent_inhibition: 33%
Q96C12; 100 uM
  KB03_100 uM_percent_inhibition: 40%
Q92624; 100 uM
  KB03_100 uM_percent_inhibition: 56%
